Laboratory results reported in patent US20230310441A1, “TREATMENT FOR SCHIZOPHRENIA” (TAKEDA PHARMACEUTICAL COMPANY, priority 2020, published 2023).
Like-named read-outs stand apart in the source and are kept apart here.

Legend:
[1] = Phase 1 FIH study: safety and tolerability (TEAEs) in healthy participants; assay type: in vivo, human
Procedure: A phase 1 first-in-human (FIH) study was conducted at a single site in the United States to evaluate the safety, tolerability, and pharmacokinetics (PK) of Compound (I). Specifically, Compound (I) was tested to evaluate the safety, tolerability, and PK of single and multiple doses in healthy participants and as add-on therapy to antipsychotics in participants with stable schizophrenia. The phase I study also assessed the oral bioavailability of Compound (I) in healthy participants administered a tablet formulation compared to an oral suspension formulation in a fasted state, as well the effect of a high-fat, high-calorie meal on the PK of a single dose of a tablet formulation of Compound (I). Additional exploratory pharmacodynamic analysis was undertaken in patients with stable schizophrenia to inform future studies.
Cohorts in Parts 1 and 2 were randomized to receive either Compound (I) or placebo in a 6:2 ratio. Cohorts in Part 3 were randomized in a 1:1 ratio, while the cohort in Part 4 was randomized in a 2:1 ratio.
Part 1 was a double-blind, SRD study in healthy adults, utilizing an alternate panel design (cohorts 1, 2) and sequential panel design (cohorts 3-5). Cohorts 1 and 2 were part of a two-period, alternating-panel, double-blind study of Compound (I) administered as an oral suspension (5 mg, 10 mg, 20 mg, or 40 mg) or matched placebo, with a washout period of at least 7 days between treatment periods. Cohorts 3-5 were part of a sequential-panel, double-blind study to evaluate the SRDs of Compound (I) (80, 120, or 160 mg, respectively) or matched placebo. Although planned, all subsequent doses after the dose of 80 mg were determined based on emerging safety, tolerability, and PK data from the preceding cohorts.
In Part 2, participants received either placebo on all dosing days or a loading dose of Compound (I) on Day 1 and a maintenance dose of half the initial dose on Days 8, 15 and 22, administered as an oral suspension. Baseline measurements were obtained on Day −2, and study-specific measurements were obtained following oral dose administrations on Days 1, 8, 15, and 22.
Part 3 was a randomized, open-label, single-dose, parallel design study to evaluate the bioavailability of a Compound (I) tablet formulation relative to a Compound (I) oral suspension formulation and the effect of food on the PK in healthy participants. The immediate release tablet contained mannitol, microcrystalline cellulose, and other commonly used excipients. Participants were randomized 1:1 to receive a single 40 mg dose of Compound (I) as a tablet after either 10 h overnight fast, or 30 min after beginning ingestion of a high-fat, high-calorie breakfast.
Safety measurements used in the phase 1 study included treatment-emergent adverse events (TEAEs), physical examinations, weight, height, BMI, vital signs, clinical laboratory evaluations, pregnancy monitoring, and ECG procedures.
TEAEs were defined as any adverse event that occurred or worsened after receiving the first dose of Compound (I) and within 6 weeks after the last dose of Compound (I). Participants experiencing two or more different TEAEs were counted only once. Frequent TEAEs were defined as adverse events that occurred in at least two participants in any treatment. Participants were evaluated with respect to mood and alertness (BL-VAS) and suicidality (C-SSRS).

[2] = Phase 1 FIH study Part 4: plasma pharmacokinetics in patients with stable schizophrenia; assay type: in vivo, human
Procedure: Part 4 was a double-blind, weekly single dosing, parallel group design in patients with stable schizophrenia.
Participants were randomly assigned 2:1 to receive either Compound (I) or placebo. For the participants receiving Compound (I), a loading dose was administered on Day 1, and a maintenance dose, at half the initial dose, on Days 8, 15, and 22. Participants in the placebo group received placebo on all study dosing days.
Plasma and urine concentrations of Compound (I) and urine concentrations of cortisol and 6β-hydroxycortisol were measured by high performance liquid chromatography with tandem mass spectrometry. One 4 mL blood sample was collected per scheduled assessment. For participants receiving placebo, blood samples were analyzed only at pre-dose and around the time Cmax occurred (as emerging from the measurements of the first dose group) to ensure that no additional participants could have been on active treatment. Serial urine samples were collected for Part 1 cohorts 1-5 and Part 2 cohorts 1-4. Urine samples for participants receiving placebo were not analyzed. Urine samples were collected for the determination of cortisol and 6β-hydroxycortisol for Part 2 cohorts 1-4 and for all patients in Part 4. Samples for participants randomized to placebo were analyzed for these parameters.
Pharmacokinetic parameters were determined from the concentration-time profiles for all evaluable participants. Actual sampling times were used in all computations. pharmacokinetic parameters were calculated using non-compartmental analysis using Phoenix WinNonLin v8.0 or SAS v 9.4.
One participant in the 160/80 mg Compound (I) cohort in Part 4 (MRD study with patients with stable schizophrenia) missed the Day 15 dose. Pharmacokinetic concentrations for Day 22 for this participant were excluded from the mean plasma-concentration time profile and associated pharmacokinetic parameters were excluded from statistical analysis.
One participant in the 160/80 mg Compound (I) cohort in Part 4 (MRD study with patients with stable schizophrenia) terminated the study following dosing on Day 1. The participant's PK parameters were excluded from statistical analysis.
Another participant in the 160/80 mg Compound (I) cohort in Part 4 (MRD study with patients with stable schizophrenia) terminated the study following dosing on Day 22. Accordingly, all PK parameters for the participant other than tmax, Cmax, observed plasma concentration at the end of a dosing interval, AUC24, AUC48, and AUC96 were excluded from summary and statistical analysis.

[3] = Part 2 MRD, 40/20 mg, N = 6, participants (percent)
[4] = Part 2 MRD, 80/40 mg, N = 6, participants (percent)
[5] = Part 2 MRD, 120/60 mg, N = 6, participants (percent)
[6] = Part 2 MRD, 160/80 mg, N = 6, participants (percent)
[7] = stable schizophrenia, oral, 160/80 mg, Day 22, N 14

C[C@H](NC(=O)Cn1nnc2ccccc2c1=O)c1ccc(OC(F)(F)F)cc1 [Compound (I), (S)-2-(4-oxobenzo[d][1,2,3]triazin-3(4H)-yl)-N-(1-(4-(trifluoromethoxy)phenyl)ethyl)acetamide]
TEAEs related to the study drug (investigator) ([1]; Part 1 (SRD)): None of the TEAEs were considered to be related to the study drug
participants who experienced a TEAE ([1]; Part 1 (SRD), participants who received Compound (I)): 20.0%
Any TEAE [1, 3]: 4 (66.7)
TEAE Mild [1, 3]: 4 (66.7)
TEAE Not related [1, 3]: 4 (66.7)
Any TEAE [1, 4]: 4 (66.7)
TEAE Mild [1, 4]: 4 (66.7)
TEAE Not related [1, 4]: 3 (50.0)
TEAE Related [1, 4]: 1 (16.7)
Any TEAE [1, 5]: 3 (50.0)
TEAE Mild [1, 5]: 2 (33.3)
TEAE Moderate [1, 5]: 1 (16.7)
TEAE Not related [1, 5]: 3 (50.0)
Any TEAE [1, 6]: 5 (83.3)
TEAE Mild [1, 6]: 5 (83.3)
TEAE Not related [1, 6]: 2 (33.3)
TEAE Related [1, 6]: 3 (50.0)
participants who experienced a TEAE ([1]; Part 3, single dose after overnight fast of at least 10 h, tablet): 11.1%
participants who experienced a TEAE ([1]; Part 3, single dose following high-fat, high-calorie breakfast, tablet): 22.2%
discontinuations due to TEAEs ([1]; phase 1 study, all parts): No discontinuations due to TEAEs occurred
deaths, serious adverse events, or other significant TEAEs ([1]; phase 1 study, all parts, 114 randomized participants): No deaths, serious adverse events, or other significant TEAEs were reported
tolerability ([1]; phase 1 study, single and repeated oral doses, healthy volunteers and patients with stable schizophrenia): generally well-tolerated
headache frequency vs placebo ([1]; phase 1 study, frequency appeared to increase with higher doses): more frequently with Compound (I) than with placebo
steady-state mean t1/2z ([2]; Part 4 MRD, schizophrenia participants): 334 h
peak systemic exposure lower in schizophrenia participants compared with healthy participants ([2]; Part 4 vs healthy): 23-30%
total systemic exposure lower for schizophrenia participants compared with healthy participants ([2]; Part 4 vs healthy): 22-27%
Cmax ([2]; human, plasma, oral, Part 4 MRD, 160/80 mg, up to 168 h post-dose, read-out: Mean Cmax (SD)): 1270 ng/mL
Tmax ([2]; human, plasma, oral, Part 4 MRD, schizophrenia patients, read-out: median tmax): 1.8 h
AUC(0-t) ([2]; human, plasma, po, stable schizophrenia, oral, 160/80 mg, Day 1, N 15): 149 µg·h/mL
AUC ([2]; human, plasma, po, stable schizophrenia, oral, 160/80 mg, Day 1, N 15, read-out: AUC24 (mean)): 20.4 µg·h/mL
AUC ([2]; human, plasma, po, stable schizophrenia, oral, 160/80 mg, Day 1, N 15, read-out: AUC96 (mean)): 90.4 µg·h/mL
AUC ([2]; human, plasma, po, stable schizophrenia, oral, 160/80 mg, Day 1, N 15, read-out: AUCτ (mean)): 149 µg·h/mL
Cmax ([2]; human, plasma, po, stable schizophrenia, oral, 160/80 mg, Day 1, N 15, read-out: Cmax (mean)): 1270 ng/mL
Tmax ([2]; human, plasma, po, stable schizophrenia, oral, 160/80 mg, Day 1, N 15, read-out: tmax (median)): 2 h
AUC(0-t) ([2]; human, plasma, po, stable schizophrenia, oral, 160/80 mg, Day 22, N 14): 660 µg·h/mL
AUC ([2]; human, plasma, po, stable schizophrenia, oral, 160/80 mg, Day 22, N 14, read-out: AUC24 (mean)): 35.5 µg·h/mL
AUC ([2]; human, plasma, po, stable schizophrenia, oral, 160/80 mg, Day 22, N 14, read-out: AUC96 (mean)): 140 µg·h/mL
AUC ([2]; human, plasma, po, stable schizophrenia, oral, 160/80 mg, Day 22, N 14, read-out: AUCτ (mean)): 227 µg·h/mL
Cmax ([2]; human, plasma, po, stable schizophrenia, oral, 160/80 mg, Day 22, N 14, read-out: Cmax (mean)): 1880 ng/mL
Tmax ([2]; human, plasma, po, stable schizophrenia, oral, 160/80 mg, Day 22, N 14, read-out: tmax (median)): 1.8 h
Vd/F ([2]; human, plasma, stable schizophrenia, oral, 160/80 mg, Day 22, N 14, read-out: Vz/F (mean)): 172 L
CL/F (mean) [2, 7]: 365.5 mL/h
Cav,ss (mean) [2, 7]: 1352.6 ng/mL
Ctrough (mean) [2, 7]: 950.4 ng/mL
t1/2z (mean) [2, 7]: 333.8 h
